The subject of data set [1] is POP. To be noted: clinical phase 1 and 2; ref López et al., 2013; cited from earlier work. From the text:
Ethnomedicinal studies have shown beneficial effects of cyclotide expressing plants in few disease conditions with relationship to POP. For instance, African traditional medicine describes the therapeutic application of Rinorea dentata (P. Beauv.) Kuntze from the Violaceae toward neurodegenerative diseases ([Sonibare and Ayoola, 2015]). […] To make use of these beneficial effects it will be necessary to further investigate P ...

The target of data set [2] is T1, human POP (Homo sapiens, UniProt P48147).
T1 construct: the full-length untagged protein was obtained after site-specific cleavage; GST (N, cleaved yes); made in house; host or cells: Escherichia coli BL21 (D3 [sic] strain)
T1 sequence (P48147 1-710): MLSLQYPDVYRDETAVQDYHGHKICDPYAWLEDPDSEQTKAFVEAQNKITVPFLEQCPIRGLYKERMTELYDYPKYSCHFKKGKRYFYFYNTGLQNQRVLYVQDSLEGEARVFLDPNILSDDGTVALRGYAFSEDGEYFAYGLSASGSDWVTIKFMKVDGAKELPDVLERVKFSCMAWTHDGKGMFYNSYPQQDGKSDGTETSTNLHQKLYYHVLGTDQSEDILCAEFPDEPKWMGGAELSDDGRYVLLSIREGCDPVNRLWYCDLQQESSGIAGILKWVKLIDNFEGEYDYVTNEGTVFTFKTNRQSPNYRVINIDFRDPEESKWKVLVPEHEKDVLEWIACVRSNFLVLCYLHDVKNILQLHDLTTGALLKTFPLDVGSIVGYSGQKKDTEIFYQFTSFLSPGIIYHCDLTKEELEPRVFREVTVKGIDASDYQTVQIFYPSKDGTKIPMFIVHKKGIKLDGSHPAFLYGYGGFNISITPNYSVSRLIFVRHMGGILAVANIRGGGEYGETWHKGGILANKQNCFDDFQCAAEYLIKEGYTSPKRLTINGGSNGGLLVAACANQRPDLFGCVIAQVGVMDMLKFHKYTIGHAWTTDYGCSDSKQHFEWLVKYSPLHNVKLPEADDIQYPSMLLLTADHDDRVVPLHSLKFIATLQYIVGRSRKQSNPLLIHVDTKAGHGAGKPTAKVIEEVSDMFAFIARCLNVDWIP
In words: POP enzyme kinetics (Michaelis-Menten) with Z-Gly-Pro-amino-coumarin. The settings on record: substrate Z-Gly-Pro-amino-coumarin, optimized assay buffer 20 mM Hepes pH 7.2, 150 mM NaCl, 1 mM EDTA, 0.5 mM DTT. The format is biochemical. As to the method:
The POP inhibition assays were carried out similarly as recently described ([Hellinger et al., 2015a]; [Retzl et al., 2020]) using a bacterial expressed POP enzyme. Human POP cDNA (accession NM:002726.4) was inserted into a pGEX-6P1 expression vector using the EcoRI and XhoI sites (Genescript, Leiden, Netherlands) and expressed in Escherichia coli (BL21 D3 strain). Protein expression was induced by addition of 0.3–0.5 mM isopropyl-β-D-thiogalactopyranoside (ProteinArk, Rotterdam, Netherlands) at an optical density (OD600) between 0.6 and 0.8 to the bacterial culture and incubated at 25°C under constant shaking. The protein was harvested at an OD600 between 1.4 and 1.5. POP was purified via GST-affinity capture beads. […] The protein concentration was determined with bicinchoninic acid assay (ThermoFisher). […] The protease activity was quantified as fluorescence from the proteolytically cleaved amino-coumarin fluorophore with excitation 380 nm and emission 420 nm on a Biotek Synergy H4 plate reader. The fluorogenic substrate provide elevated fluorescence by the delocalization of electrons after the amide bond cleavage and release of the 7 amino coumarin moiety. […] The percent remaining POP activity was calculated as I = (vi/vo)*100. […]

Data set [3] can be described thus: Precipitation of the substrate in POP assay. The format is physicochemical. To be noted: optimized POP assay conditions, tested between 0.766 µM and 300 µM. As to the method:
Supplementary Figure S3. POP purification and optimization of the assay system.Human POP wa s expressed in E. coliand purified as functional protease. The purification steps were analyzed using a Coomassie stained protein gel. Purifi ed POP enzyme is shown in lane 7 after site-specific cleavage with PreS cissi on protease and rel ease of the untagg ed protein (A). Different assay conditions were tested to study the effect of buffer sy stems and pH dependency (B,C), the use of organi c solve nts (D), DTT (E) and NaCl (F) concentration on POP enzyme activ ity. For calculation of POP activ ity the slope in the li near range between 5 and 35 mi n of kinetic measurements were used. With the optim ized conditionsZ-Gly-Pro-amino-coumarin concentrations between 0.766 µM and 300 µM were tested in a kinetic measurement and a con centration dependent increase in sig nal was observed. Above 150 µM substrate concentration no further increase in sig nal was measured due to preci pitation of the substra te (G). Al l data are shown as mean of three biologi cal experim ents and error is shown as ±SEM.
(1 picture or pasted object on this page, not shown here)

Data set [4] addresses T1, human POP. In words: POP inhibition assay, Z-Gly-Pro-amino-coumarin substrate. The class given is biochemical.
Experimental: The POP inhibition assays were carried out similarly as recently described ([Hellinger et al., 2015a]; [Retzl et al., 2020]) using a bacterial expressed POP enzyme. […] For enzyme inhibition assays human POP (50 ng/well) was incubated in assay buffer (20 mM Hepes pH 7.2, 150 mM NaCl, 1 mM EDTA, 0.5 mM DTT) together with substrate Z-Gly-Pro-amino-coumarin (final concentration 45 µM) at 37°C for 60 min. […] All experiments were performed in 96-microtiter black bottom plates. Concentration-response inhibition assays were performed with [S] = K m, which is considered a suitable condition for evaluating samples of unknown inhibition mode (e.g. competitive, noncompetitive or uncompetitive reversible inhibition). The protease activity was quantified as fluorescence from the proteolytically cleaved amino-coumarin fluorophore with excitation 380 nm and emission 420 nm on a Biotek Synergy H4 plate reader. The fluorogenic substrate provide elevated fluorescence by the delocalization of electrons after the amide bond cleavage and release of the 7 amino coumarin moiety. All samples for protease inhibition assays were prepared in ddH2O. Concentration-dependent inhibition studies were performed with the peptide enriched extracts (2–1,000 μg/ml) or isolated peptides (0.1–60 µM). For bioassay-guided isolation HPLC fractions were assayed for POP inhibition with three concentrations (4, 20 and 100 μg/ml). Kinetic measurements were carried out to obtain initial velocities in the presence of sample (vi) or enzyme alone (vo) ([Arnison et al., 2013]). The percent remaining POP activity was calculated as I = (vi/vo)*100. A substrate background was used for correction of all measurements. KYP-2047, a specific POP inhibitor, was used as positive control in the assays. […] Four parameter non-linear regression curve fits were obtained using GraphPad Prism v5.0 fitting algorithms with equation Y=Bottom + (Top-Bottom)/(1 + 10^((LogIC50-X)*Hill Slope)) in which X is the log dose and Y the measured response.
Data set [5] concerns POP. Set-up: method as in 3 sources, ref Hellinger et al., 2015a ||| ref Tarrago et al., 2007; Tarragó et al., 2008; Cahlíková et al., 2015 ||| ref Retzl et al., 2020. To be noted: cited from earlier work; for POP inhibition (in words): alkaloids and flavonoids, ref Tarrago et al., 2007, Tarragó et al., 2008, Cahlíková et al., 2015. As to the method: Previous phytochemical studies identified natural products as inhibitors for POP such as small molecule entities and natural peptides. […] A sequence logo was prepared to compare the amino acid positions for conserved residues or to identify variable positions (Figure 7C).

Bridge positions count the residues as written; N and C are the ends. Peptide text beside a SMILES is read from it. * marks the point of attachment. AMC = Cc1cc(=O)oc2cc(N*)ccc12; Cbz = O=C(OCc1ccccc1)*

As to `O=C(CO)[C@@H]1CCCN1C(=O)[C@@H]1CCCN1C(=O)NCc1ccccc1` [JTP-4819], in the data set with POP [1], the “clinical outcome (in words)” value is “failed to succeed or provided ambiguous outcomes in their clinical phase”. A word on the Vmax: it is the rate approached at saturating substrate. Consider `Cc1cc(=O)oc2cc(NC(=O)[C@@H]3CCCN3C(=O)CNC(=O)OCc3ccccc3)ccc12` [Z-Gly-Pro-amino-coumarin] (Cbz-Gly-Pro-{AMC}), for which, at human POP [2], the K m is 42.4 µM and the Vmax came to 0.00015 µmol/min. Also, the “substrate concentration above which precipitation of the substrate occurs” value in data set [3] is given as “Above 150 µM”.

Usually Hill slope stands for a measure of the steepness of the concentration-response curve. The molecule `CC[C@H](C)[C@@H]1NC(=O)[C@H](C)NC(=O)[C@H](C)NC(=O)[C@H](CO)NC(=O)[C@H]([C@@H](C)CC)NC(=O)[C@@H]2CSSC[C@@H]3NC(=O)[C@H](C(C)C)NC(=O)[C@H](CCCCN)NC(=O)[C@H](CC(N)=O)NC(=O)[C@H](CCCCN)NC(=O)[C@@H]4CSSC[C@H](NC(=O)[C@H](CO)NC(=O)[C@H](CCC(=O)O)NC(=O)CNC(=O)[C@H](CSSC[C@H](NC(=O)CNC1=O)C(=O)N[C@@H](CO)C(=O)N4)NC(=O)[C@@H]1CCCN1C(=O)[C@H]([C@@H](C)CC)NC(=O)[C@H](C(C)C)NC(=O)CNC(=O)[C@H](CC(=O)O)NC(=O)[C@H](CCCNC(=N)N)NC(=O)[C@H](Cc1ccc(O)cc1)NC3=O)C(=O)N[C@@H](C(C)C)C(=O)N[C@@H](Cc1ccccc1)C(=O)N[C@@H]([C@@H](C)CC)C(=O)N1CCC[C@H]1C(=O)N2` [alca 1] (cyclo(AAIGCSCKNKVCYRDGVIPCGESCVFIPCIS); disulfide 5-20, 7-24, 12-29) displayed an IC50 on human POP [4] of 8.5 ± 5.9 µM. The molecule further gave a Hill slope on human POP [4] (sigmoidal inhibition curves of isolated peptides, four parameter non-linear regression, mean ± standard deviation, three or five biological experiments, respectively (alca 1, alca 2)) of −1.2 ± 0.1. Regarding `CC[C@H](C)[C@@H]1NC(=O)[C@@H]2CSSC[C@@H]3NC(=O)[C@H](C(C)C)NC(=O)[C@H](CCCCN)NC(=O)[C@H](CC(N)=O)NC(=O)[C@H](CO)NC(=O)[C@@H]4CSSC[C@H](NC(=O)[C@H](CO)NC(=O)[C@H](CCC(=O)O)NC(=O)CNC(=O)[C@H](CSSC[C@H](NC(=O)CNC(=O)[C@H](CC(C)C)NC(=O)[C@H](C(C)C)NC(=O)CNC(=O)[C@H](CO)NC1=O)C(=O)N[C@@H](CO)C(=O)N4)NC(=O)[C@@H]1CCCN1C(=O)[C@H]([C@@H](C)CC)NC(=O)CNC(=O)[C@H](CC(N)=O)NC(=O)[C@H](CCCNC(=N)N)NC(=O)[C@H](Cc1ccc(O)cc1)NC3=O)C(=O)N[C@@H](C(C)C)C(=O)N[C@@H](Cc1ccccc1)C(=O)N[C@@H]([C@@H](C)CC)C(=O)N1CCC[C@H]1C(=O)N2` [alca 2] (cyclo(CGESCVFIPCISGVLGCSCSNKVCYRNGIP); disulfide 1-17, 5-19, 10-24), on human POP [4], the IC50 came to 4.4 ± 0.7 µM. Take `O=c1cc(-c2ccccc2)oc2cc(O)c(O)c(O)c12` [balcalein]: the “POP inhibition (in words)” value in the data set with POP [5] is listed as “inhibit POP activity”. As for `COc1ccc2cc3[n+](cc2c1OC)CCc1cc2c(cc1-3)OCO2` [berberine], the “POP inhibition (in words)” value with POP [5] is “inhibit POP activity”.

In the case of `C[N+]1(C)[C@H]2Cc3cc4c(cc3[C@@H]1Cc1cc3c(cc12)COC3)OCO4` [californidine], the “POP inhibition (in words)” value in the data set with POP [5] is listed as “inhibit POP activity”. As for “kalata B1: cyclotide, amongst others in V. tricolor L., Moebius type (cyclo(GLPVCGETCVGGTCNTPGCTCSWPVCTRN); disulfide 14-26, 5-19, 9-21; UniProt P56254 89-117, looked up)”, the IC50 in the data set with POP [5] (POP, ref Hellinger et al., 2015a, read-out: half maximal inhibitory concentration (IC50)) was 5.6 µM.

The values are drawn from publication PMC8311463, “Cyclotides Isolated From Violet Plants of Cameroon Are Inhibitors of Human Prolyl Oligopeptidase” (Frontiers in Pharmacology, 2021).
